Laboratory results as given in patent publication EP0092060A1, “Pharmaceutical products in sustained-release form, and their preparation process” (LABORATORI PROPHIN Industria Chimica Farmaceutica S.p.A., priority 1982, dated 1983).

What was measured:
[1] = Drug release (dissolution), USP XX paddle apparatus, distilled water at 37°C; type: physicochemical; details: for time to total release: drug simply pasted/mixed into the polymer support matrix (uncoated nuclei); for release kinetics / release rate: nuclei covered with the diffusion regulating film; for release rate: during the release period; for influence of the second film on the drug diffusion rate: nuclei with first and second films compared with first film only; for % drug released: distilled water at 37°C, average of 6 determinations
Procedure: The Tiapride release was monitored for the uncoated nuclei, the nuclei with the first film applied, and the finished nuclei also comprising the second film.
A USP XX paddle apparatus was used, the dissolving medium being distilled water at 37°C.
The obtained results given hereinafter are the average of 6 determinations.
The Diltiazem release rate was measured on noncoated nuclei, nuclei coated with the first film and the finalized form with the second film coating.
A USP XX paddle apparatus was used and the dissolving medium was distilled water at 37°C.

[2] = Pharmacokinetic parameters obtained in man, used to calculate the optimum hourly dose; details: human, in vivo, read-out: elimination constant (Kel) (converted)
[3] = cited from earlier work

COc1ccc([C@@H]2Sc3ccccc3N(CCN(C)C)C(=O)[C@@H]2OC(C)=O)cc1 [Diltiazem]
time to total release [1]: totally released within two hours | release kinetics [1]: on the order of zero | release rate [1]: 10 to 15 mg/h | influence of the second film on the drug diffusion rate [1]: practically no effect | k el [2]: 3.42e-05 s⁻¹ | distribution volume (Vd) ([3]; humans, unit not given): 1065 | half life ([3]; in man): 4 h

CCN(CC)CCNC(=O)c1cc(S(C)(=O)=O)ccc1OC.Cl [Tiapride, N-diethylaminoethyl-2-methoxy-5-methylsulphonyl-benzamide hydrochloride]
time to total release [1]: totally released within two hours | release kinetics [1]: zero order | release rate [1]: 10 to 15 mg/h | % drug released ([1]; nuclei covered with the first and second films, 1 hour): 0% | % drug released ([1]; nuclei covered with the first and second films, 2 hours): 1% | % drug released ([1]; nuclei covered with the first and second films, 3 hours): 16% | % drug released ([1]; nuclei covered with the first and second films, 4.5 hours): 34% | % drug released ([1]; nuclei covered with the first and second films, 5.5 hours): 44% | % drug released ([1]; nuclei covered with the first and second films, 6.5 hours): 57% | % drug released ([1]; nuclei covered with the first and second films, 7.5 hours): 71% | % drug released ([1]; nuclei covered with the first and second films, 8.5 hours): 83% | % drug released ([1]; nuclei covered with the first film, 1 hour): 2% | % drug released ([1]; nuclei covered with the first film, 2 hours): 4% | % drug released ([1]; nuclei covered with the first film, 3 hours): 14% | % drug released ([1]; nuclei covered with the first film, 3.5 hours): 19.3% | % drug released ([1]; nuclei covered with the first film, 4.5 hours): 34% | % drug released ([1]; nuclei covered with the first film, 5 hours): 47% | % drug released ([1]; nuclei covered with the first film, 6 hours): 57% | % drug released ([1]; nuclei covered with the first film, 7 hours): 69% | % drug released ([1]; nuclei covered with the first film, 8 hours): 83% | influence of the second film on the drug diffusion rate [1]: practically no influence | % drug released ([1]; uncoated nuclei, 15 min): 37.8% | % drug released ([1]; uncoated nuclei, 30 min): 51.6% | % drug released ([1]; uncoated nuclei, 60 min): 71.1% | % drug released ([1]; uncoated nuclei, 90 min): 80.3% | % drug released ([1]; uncoated nuclei, 120 min): 86.0% | k el [2]: 4.81e-05 s⁻¹ | hematic peak after administering 100 mg (Cp) ([3]; in man, 100 mg): 800 ng/mL | half life ([3]; in man): 4 h | therapeutic range ([3]; in man): 0.6 - 0.9 mg/l of plasma
